Converted amounts (≈) assume the structure as drawn.
What was measured:
[1] = system: DNA polymerase I from E. coli. B; conditions: covalently bound compound; cited from earlier work
PCR'd MACS 1555 target = assay: Inhibition of PCR by non-psoralen compounds in the absence of light; format: biochemical
From the text: The compounds tested were the following: 1) ethidium bromide (a Phenanthridine, see Table 1), 2) xylene cylanol (an Organic Dye, see Table 1), 3) bromphenol blue (an Organic Dye, see Table 1), 4) coumarin and 5) methylene blue (a Phenazathionium Salt, see Table 1).
A separate experiment examined PCR inhibition with coumarin and methylene blue in the absence of light. The following concentrations of methylene blue were tried: 4.3×10^−2, 4.3×10^−3, 4.3×10^−4 and 4.3×10^−5 M. Concentrations of coumarin tried included: 7×10^−3, 7×10^−4, 7×10^−5 and 7×10^−6 M. Compound was added to PCR tube containing α-^32P-dCTP and target (1 μl […].; PCR'd MACS 1555 per assay-point). PCR was carried out for 30×cycles. Samples were loaded onto a 12%/8 M urea gel.

[2] = Solubility of photoreactive compounds in 1×TE; format: physicochemical; conditions: excess compound heated 50-70° C., stirred at room temperature, filtered, optical density
Description: The solubilities of AMIP, AMDMIP, DMIP, MIP and isopsoralen (IP) were determined experimentally according to the scheme set forth in FIG. 5. To perform the solubility measurement, it was first necessary to establish known optical densities for a 1 μg/ml solution of each compound. These were determined by preparing either ethanolic or aqueous stocks of each compound at known concentrations in 1×TE, then measuring the optical density of each solution. From this information, the absorption of a 1 μg/ml solution was computed. Alternatively, the extinction coefficient may be thus determined and used in the same fashion. In this manner, the following absorption data was collected:
Following this step, undissolved compound was removed by filtration using a 0.2 u nylon-66 syringe filter (Arco LC13; Gelman). The concentration of the remaining soluble compound was then determined by measuring the optical density of the filtrate and computing the solubility from the known optical density of a 1 μg/ml solution of that compound. The solubility of the compounds was thus determined to be as follows: […]

[3] = as reported by Dall'Acqua et al.; cited from earlier work
human placental DNA = assay: PCR in presence of AMDMIP and DMSO co-solvent; format: biochemical; conditions: no AMDMIP, 0% DMSO gave 139,000
Description: In this example, the effect of DMSO on PCR amplification in the presence of high concentrations of sterilizing compound (AMDMIP) was investigated. Samples were prepared for PCR which contained 1 μg of human placental DNA either with or without (unirradiated) AMDMIP (200 μg/ml). The samples were amplified 30 cycles under standard PCR conditions in the presence of 0%, 1%, 5% or 10% DMSO. The reaction mix contained α-^32P-dCTP. Following amplification, the samples were analyzed by PAGE (data not shown).

Taq I DNA polymerase = assay: Primer extension on site-specific monoadducted 71-mer, Taq polymerase; format: biochemical, Thermus aquaticus; conditions: 55° C., single extension
Description: In this experiment, monoadducted 71-mers (as well as unmodified 71-mers) were used in template-dependent enzymatic extension. AMIP, AMDMIP, and MIP 71-mer monoadducts were made as in Example 42. Extension was carried out as in Example 43 except that in this experiment, Taq I DNA polymerase, a thermostable DNA polymerase isolated from Thermus aquaticus (Stratagene, Inc., La Jolla, Calif.) was assessed for its ability to read past isopsoralens.
The reaction mixture was in 80 μl total volume and comprised 1×Taq buffer, 200 μM each of dNTP's, 0.05 units of Taq per μl of reaction volume; 1×10^−9 M in 71-mer MA; 1×10^−8 M in ^32P-labelled SK-39. Each reaction was set up with everything except Taq polymerase. The samples were initially heated to 95° C. for 5 mins, then incubated at 55° C. for 3 mins. The extension reaction was initiated by addition of Tas polymerase. At the indicated time points (0.5, 1.0, 5.0 mins), 20 μl of the reaction mix was removed to a tube containing 1 μl of 0.5 M EDTA to stop the reaction. All products were analyzed on a 20% polyacrylamide, 7 M urea gel followed by autoradiography.
This experiment investigated whether blocking of Tag polymerase by monoadducts is complete or whether monoadducts can be bypassed by the enzyme. In order to view the process of bypass syrthesis, it is necessary to cycle the extension reaction of the primer with the 71-mer templates. Cycling in this case consists of mixing the primer with the 71-mer template, adding Taq polymerase and appropriate reagents, extending, heating to induce strand separation, reannealing of the primer to the 71-mer template, extending again, and subsequent stand separation. This process can be repeated as necessary. During this process, only the complement of the 71-mer template is being synthesized. It is accumulating in a linear fashion with the number of thermal cycles (in contrast to PCR where both strands are being synthesized and accumulate geometrically).
The templates and reaction conditions were as in Example 44 above except that three samples were used for each monoadduct and each sample was tested under different conditions:
Samples (1): one sample for each monoadduct was used to carry out extension at 55° C. as in Example 43;
Samples (2): one sample for each monoadduct was used to carry out extension by the following series of steps: denaturing at 95° C.; incubating for 30 seconds at 55° C.; adding Taq polymerase for 3 minutes at 55° C.; cooling the reaction for 1 minute at 7° C.; stopping the reaction with EDTA for one minute at 95° C.
Samples (3): one sample for each monoadduct was used to carry out extension by repeating the following series of steps nine times: denaturing at 95° C.; incubating for 30 seconds at 55° C.; adding Taq polymerase for 3 minutes at 55° C.; cooling the reaction for 1 minute at 7° C. At the end, the reaction is stopped with EDTA for one minute at 95° C.
To investigate this question further, a new 5-MIP monoadducted 71-mer was prepared by repurification of the HPLC purified 5-MIP ronoadducted 15-mer by PAGE. In this way, more of the non-monoadducted 15-mer was removed prior to ligation. The purified 71-mer was then used as template in an extension experiment as described in Example 45. After 10 cycles, there was still evidence of extension product (FIG. 34).
Monoadducted 71-mer was constructed as described, but for HMT. Extension was carried out and analyzed as before on PAGE. […] Full length 71-mer is not made and a shorter strand corresponding to the position of the HMT adduct was made.

E. coli polymerase I = conditions: cited from earlier work
Taq polymerase = Taq polymerase (Thermus aquaticus, UniProt P19821); assay: Taq primer extension of 71-mer after random addition of compound or photoproduct; format: biochemical; conditions: photobiotin 6×10^−6 M
From the text: In this experiment, the ability of AMIP, AMDMIP and MIF to block replication of 71-mer is investigated by randomly adding each compound to the 71-mer. Of course, addition may only be random in the sense that one or more adducts may be formed with any one strand of nucleic acid. The actual placement of the isopsoralen may be governed by preferential binding at particular sites (e.g. A:T). In addition to blockage by random adducts, photoproducts of the various isopsoralens may be providing an inhibitory effect. No attempt to separate the effects of photoproduct from the effects of covalent adducts on the 71-mer template was made in this series of experiments.
In these experiments, the 71-mer template (10^−9 M) was primed with ^32P-SK-39 (10^−8) and extended with Taq polymerase in a total volume of […]. The dNTP concentration was 200 μM. In the control samples, the 71-mer, the primer, and the dNTPs were mixed in Taq buffer in a volume of 18 p1. These samples were initially denatured at 95° C. for 5 minutes, followed by equilibration at 55° C. for 3 minutes. Taq enzyme was then added (0.5 units) and the extension reaction was carried out for 5 minutes at 55° C. The reaction was stopped by making the solution 10 mM in EDTA. In another set of samples, the 71-mer in 10 μl was mixed with either AMIP (200 μg/ml), AMDMIP (200 μg/ml), or MIP (60 μg/ml). Half of these samples were irradiated for 15 minutes on the CE-I device at 25° C. The other half was kept in the dark as controls. These samples were then mixed with the primer and dNTPs as before, and were subjected to the same thermal profile and extension reactions as the samples that were described earlier. The results were examined by PAGE. The extended product bands were identified by autoradiography, excised and counted (data not shown). […]
71-mer was made up in Taq buffer. Samples were prepared as follows: 1) dark control samples were not subjected to activating light; 2) 10 μl samples of the 71-mer (2×10^−9 M) were irradiated in the presence of 200 μg/ml AMDMIP, and 3) 10 μl samples of a 200 μg/ml solution of AMDMIP were irradiated in the absence of the 71-mer target. All irradiations were carried out with the CE-I device at 25° C. After preparing the above samples, unirradiated AMDMIP was added to one set of the dark control samples. Another set of dark controls received irradiated AMDMIP. ^32P-SK-39 primer and dNTPs were then added to all samples and the volume was adjusted to 18 μl. These samples were denatured at 95° C. for 5 minutes, followed by equilibration at 55° C. for 3 minutes. Taq polymerase was then added and the extension reaction was carried out for 5 minutes. The reaction was stopped by bringing the samples to 10 mM in EDTA. The final concentrations of all reagents during the extension reactions were: […]

HIV 115-mer = assay: PCR with pre-irradiated photobiotin or monoazide ethidium chloride; format: biochemical
Description: In this experiment, photobiotin and monoazide ethidium chloride were tested as PCR sterilization reagents. The temporal steps were performed to examine photoproduct effects (if any). Solutions of photobiotin and monoazide ethidium chloride were made up in 1×Taq buffer. […] Each compound solution was divided into two parts: One part was irradiated under a GE sunlamp through a pyrex filter (300nm cut-off); the other half was irradiated under a GE sunlamp through a 2.9 M NaNO2 liquid filter (400 nm cut-off). Irradiations were carried out on ice for 15 minutes. After irradiation, aliquots of each tube were carried over into tubes containing PCR reagents and target (HIV 115-mer); PCR was then carried out for 30 cycles in the presence of α-^32P-dCTP. After amplification aliquots were analyzed on 12% acrylamide/8M urea gels.

Chain of Taq polymerase (P19821 whole entry): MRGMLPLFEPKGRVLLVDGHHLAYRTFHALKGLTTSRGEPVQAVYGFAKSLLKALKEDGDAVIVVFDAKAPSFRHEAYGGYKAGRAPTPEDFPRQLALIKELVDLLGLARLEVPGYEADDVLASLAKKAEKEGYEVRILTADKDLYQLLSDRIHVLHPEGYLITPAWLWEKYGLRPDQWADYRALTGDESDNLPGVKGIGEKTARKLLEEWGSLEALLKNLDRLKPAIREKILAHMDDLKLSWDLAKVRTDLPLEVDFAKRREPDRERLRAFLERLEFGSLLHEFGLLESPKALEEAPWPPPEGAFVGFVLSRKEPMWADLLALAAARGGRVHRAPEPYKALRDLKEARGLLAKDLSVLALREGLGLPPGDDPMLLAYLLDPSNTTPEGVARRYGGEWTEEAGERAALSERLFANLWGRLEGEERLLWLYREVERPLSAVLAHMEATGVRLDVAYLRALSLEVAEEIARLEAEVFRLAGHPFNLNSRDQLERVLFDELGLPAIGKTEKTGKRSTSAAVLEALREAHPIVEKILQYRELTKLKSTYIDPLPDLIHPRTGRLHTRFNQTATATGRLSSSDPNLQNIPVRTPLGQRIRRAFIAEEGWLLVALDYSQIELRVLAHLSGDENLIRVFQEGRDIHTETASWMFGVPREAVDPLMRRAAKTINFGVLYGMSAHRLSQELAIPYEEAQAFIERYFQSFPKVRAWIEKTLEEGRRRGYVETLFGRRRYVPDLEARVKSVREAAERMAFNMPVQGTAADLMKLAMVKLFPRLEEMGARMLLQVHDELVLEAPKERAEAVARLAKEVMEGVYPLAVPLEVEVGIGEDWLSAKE

COc1c2occc2cc2ccc(=O)oc12 [Compound 8-MOP, 8-methoxypsoralen]
loss of template activity of modified DNA [1]: 97%

O=c1ccc2ccccc2o1 [Coumarin, coumarin]
inhibition of PCR in the absence of light (PCR'd MACS 1555 target; dark control, coumarin 7×10^−3 to 7×10^−6 M): did not inhibit PCR at any of the concentrations tested

COc1cc(OC)c2ccc(=O)oc2c1 [DMC, 5,7-dimethoxycoumarin]
loss of template activity of modified DNA [1]: 50%

Cc1cc2c(ccc3c(C)cc(=O)oc32)o1 [DMIP, 4,5′-Dimethylisopsoralen]
Solubility in 1 × TE [2]: nd** (nd = not detectable (solubility was less than 1 μg/ml))
maximum aqueous solubility [3]: 8 µg/mL

C[S+](C)[O-] [DMSO, dimethyl sulfoxide]
product band CPM (average of duplicate samples) (human placental DNA; 1% DMSO): 137,000 CPM
product band CPM (average of duplicate samples) (human placental DNA; 5% DMSO): 94,000 CPM
product band CPM (average of duplicate samples) (human placental DNA; 10% DMSO): 76,000 CPM

Cc1oc2c(C)c3oc(=O)cc(C)c3cc2c1CO [HMT, 4′-hydroxymethyl-4,5′,8-trimethylpsoralen]
Taq polymerase extension on 71-mer monoadduct template (Taq I DNA polymerase): stop Tag polymerase
inhibition of polymerase by covalently bound monoadducts (E. coli polymerase I; nick-translating a double-stranded template): not inhibited
inhibition of polymerase by monoadducts (E. coli polymerase I; single-stranded bacteriophage DNA template): inhibited

O=c1ccc2ccc3occc3c2o1 [IP, isopsoralen, reference compound]
solubility ([2]; 1×TE buffer, aqueous buffer, thermodynamic from solid): 2 µg/mL (≈ 10.7 µM)

CN(C)c1ccc2nc3ccc(=[N+](C)C)cc-3sc2c1 [methylene blue]
concentrations that inhibited PCR in the absence of light (PCR'd MACS 1555 target; tested 4.3×10^−2 to 4.3×10^−5 M, 30 cycles): above 4.3×10^−5 M

CC[n+]1c(-c2ccccc2)c2cc(N=[N+]=[N-])ccc2c2ccc(N)cc21 [monoazide ethidium chloride, reference compound]
extension of 71-mer, dark control (Taq polymerase; monoazide ethidium 1.4×10^−3 M, kept in the dark): inhibition of extension
inhibition of PCR by pre-irradiated compound (HIV 115-mer; 3×10^−6 M to 3×10^−10 M, GE sunlamp 15 minutes on ice, 30 cycles): does not inhibit PCR

CN(CCCNC(=O)CCCC[C@@H]1SC[C@@H]2NC(=O)N[C@@H]21)CCCNc1ccc(N=[N+]=[N-])cc1[N+](=O)[O-] [photobiotin, reference compound]
extension of 71-mer after irradiation with compound (Taq polymerase; GE sunlamp 15 minutes on ice): inhibition only after irradiation
concentration of pre-irradiated compound that shut down PCR (HIV 115-mer; range 7×10^−4 M to 7×10^−10 M, 115-mer amplified at all lower concentrations): 700 µM
